In brackets after ≈: the same amount, converted by molar mass. Read-outs that look alike come from different tables or passages of the source.
Experiments:
M. tuberculosis H37Rv [1] = assay: microbe, parasite or virus in culture; format: cell-based; set-up: MIC against wild-type M. tuberculosis strain (below moxifloxacin MIC): unit not given beside the values; details: for MIC: Mycobacterium tuberculosis
M. tuberculosis H37Rv [2] = details: Table 2, published previously (Poissy et al. 2010); cited from earlier work
[3] = target: T1, M. tuberculosis DNA gyrase (Mycobacterium tuberculosis, UniProt P9WG45+P9WG47); set-up: made in house; details: Table 2; published previously (Poissy et al. 2010); cited from earlier work
[4] = system: M. tuberculosis H37Rv strain; assay: Minimal effective dosage in the murine TB model; format: in vivo, Balb/C/J female mice; details: 25 mg/kg/j, Gavage
Procedure: Four-week-old Balb/C/J female mice were infected intravenously with 10^6 CFU of M. tuberculosis H37Rv strain. On the day following the infection (D1), 10 mice were sacrificed to determine the exact baseline values of spleen weight and CFU counts in the lungs. The remaining mice were allocated to the following treatment groups: an untreated negative control group for survival monitoring, a positive control group treated for 1 month with isoniazid (INH) 25 mg/kg/d, […] test groups were treated with Quin18 and Quin19 at increasing dosages (25 mg/kg/d; 50 mg/kg/d; 100 mg/kg/d; 150 mg/kg/d) given by oral gavage, and two additional test groups were treated intravenously with Quin18 25 mg/kg/d and 100 mg/kg/d. All the groups contained 10 mice and were treated from D1 to D28, 5 days a week. The parameters used for assessing the severity of infection and the effectiveness of treatments were survival rate, spleen weight, gross lung lesions and CFU counts in the lungs.
The minimal effective dosage was defined as the minimal dosage able to prevent mortality of the mice, spleen enlargement and the occurrence of gross lung lesions. CFU counts were considered to be a more precise way of determining the dose-ranging efficacy of Quin18 and Quin19.
Survival rates between groups were plotted on a Kaplan-Meier curve and compared using the log-rank test.

[5] = target: T1, M. tuberculosis DNA gyrase; assay: biochemical
[6] = H37Rv, Table 2, read-out: MIC (M. tuberculosis) WT
[7] = H37RV, Table 3, read-out: MIC M. tuberculosis H37Rv

T1 sequence (P9WG47 whole entry): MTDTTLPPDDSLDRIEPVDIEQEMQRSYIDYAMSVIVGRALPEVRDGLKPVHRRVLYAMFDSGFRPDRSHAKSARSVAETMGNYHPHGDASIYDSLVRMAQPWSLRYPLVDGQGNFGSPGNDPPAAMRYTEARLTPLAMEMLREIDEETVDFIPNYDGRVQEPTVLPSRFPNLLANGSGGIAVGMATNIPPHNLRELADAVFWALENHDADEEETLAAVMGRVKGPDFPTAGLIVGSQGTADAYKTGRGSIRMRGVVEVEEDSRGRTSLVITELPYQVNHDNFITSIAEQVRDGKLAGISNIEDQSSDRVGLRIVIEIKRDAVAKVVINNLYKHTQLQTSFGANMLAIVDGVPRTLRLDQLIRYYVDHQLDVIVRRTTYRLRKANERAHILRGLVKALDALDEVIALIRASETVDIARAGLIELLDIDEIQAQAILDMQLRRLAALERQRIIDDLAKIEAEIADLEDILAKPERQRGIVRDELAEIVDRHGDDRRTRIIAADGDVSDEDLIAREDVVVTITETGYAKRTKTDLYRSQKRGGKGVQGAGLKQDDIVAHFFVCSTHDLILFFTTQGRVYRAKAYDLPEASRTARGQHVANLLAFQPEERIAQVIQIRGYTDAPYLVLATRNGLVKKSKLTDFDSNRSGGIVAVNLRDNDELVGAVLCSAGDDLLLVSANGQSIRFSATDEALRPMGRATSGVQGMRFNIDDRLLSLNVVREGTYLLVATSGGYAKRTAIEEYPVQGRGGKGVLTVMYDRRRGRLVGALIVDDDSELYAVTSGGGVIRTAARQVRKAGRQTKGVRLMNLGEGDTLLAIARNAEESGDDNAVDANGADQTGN
T1 sequence (P9WG45 whole entry): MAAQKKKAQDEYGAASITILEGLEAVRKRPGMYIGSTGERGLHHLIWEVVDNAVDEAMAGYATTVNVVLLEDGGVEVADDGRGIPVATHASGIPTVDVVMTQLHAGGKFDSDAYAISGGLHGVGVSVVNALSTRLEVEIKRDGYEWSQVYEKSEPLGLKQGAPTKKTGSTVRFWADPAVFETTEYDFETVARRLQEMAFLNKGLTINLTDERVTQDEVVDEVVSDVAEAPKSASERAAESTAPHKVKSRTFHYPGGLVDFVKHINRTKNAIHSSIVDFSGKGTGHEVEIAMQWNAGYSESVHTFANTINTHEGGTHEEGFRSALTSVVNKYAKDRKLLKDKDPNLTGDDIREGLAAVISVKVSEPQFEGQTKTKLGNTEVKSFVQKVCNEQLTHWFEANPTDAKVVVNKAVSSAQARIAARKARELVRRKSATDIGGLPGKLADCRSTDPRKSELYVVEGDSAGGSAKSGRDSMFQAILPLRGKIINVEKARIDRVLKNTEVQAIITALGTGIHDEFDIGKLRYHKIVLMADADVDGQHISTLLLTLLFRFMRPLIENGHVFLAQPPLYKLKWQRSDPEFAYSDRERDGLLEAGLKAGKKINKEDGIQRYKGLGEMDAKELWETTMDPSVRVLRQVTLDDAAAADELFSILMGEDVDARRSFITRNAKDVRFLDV

Row | SMILES | MIC (M. tuberculosis H37Rv [1]; [6]) [µM] | MIC (M. tuberculosis H37Rv [1]; [7]) [µM] | IC50 [5] [µM] | also measured
1 | O=C(O)c1cn(C2CC2)c2cc(N3CCNCC3)c(F)cc2c1=O [Ciprofloxacin, ciprofloxacin, reference compound] | 1.5 (≈ 0.497 µg/mL) | – | – | –
2 | CCCCCCCN1CCN(c2c(F)cc3c(=O)c(C(=O)O)cn(C4CC4)c3c2OC)CC1 [Compound 15, 1-cyclopropyl-6-fluoro-7-(4-heptylpiperazin-1-yl)-8-methoxy-4-oxo-1,4-dihydroquinoline-3-carboxylic acid] | – | 2.2 (≈ 1.01 µg/mL) | – | –
3 | CCCCCCCCCN1CCN(c2c(F)cc3c(=O)c(C(=O)O)cn(C4CC4)c3c2OC)CC1 [Compound 17, 1-cyclopropyl-6-fluoro-8-methoxy-7-(4-nonylpiperazin-1-yl)-4-oxo-1,4-dihydroquinoline-3-carboxylic acid] | – | 0.12 (≈ 0.0585 µg/mL) | – | –
4 | CCCCCCCCCCCN1CCN(c2c(F)cc3c(=O)c(C(=O)O)cn(C4CC4)c3c2OC)CC1 [Compound 19, 1-cyclopropyl-6-fluoro-8-methoxy-4-oxo-7-(4-undecylpiperazin-1-yl)-1,4-dihydroquinoline-3-carboxylic acid] | – | 0.25 (≈ 0.129 µg/mL) | – | –
5 | CCCCCCCCCCCCN1CCN(c2c(F)cc3c(=O)c(C(=O)O)cn(C4CC4)c3c2OC)CC1 [Compound 20, 1-cyclopropyl-7-(4-dodecylpiperazin-1-yl)-6-fluoro-8-methoxy-4-oxo-1,4-dihydroquinoline-3-carboxylic acid] | – | 0.47 (≈ 0.249 µg/mL) | – | –
6 | COc1c(N2CCNC(C)C2)c(F)cc2c(=O)c(C(=O)O)cn(C3CC3)c12 (centres unmarked) [Gatifloxacin, gatifloxacin] | – | – | – | MIC (M. tuberculosis) WT (M. tuberculosis H37Rv [2]): 0.32 µM (≈ 0.12 µg/mL); IC50 [3]: 6.8 µM
7 | NNC(=O)c1ccncc1 [Isoniazid, isoniazid, reference compound] | – | – | – | Spleen weight [4]: 237 ± 73.8 mg; Survival: No. death ([4]; D1 to D28, 5 days a week, 10 mice): 0
8 | COc1c(N2C[C@@H]3CCCN[C@@H]3C2)c(F)cc2c(=O)c(C(=O)O)cn(C3CC3)c12 [Moxifloxacin, moxifloxacin, reference compound] | – | 1.2 (≈ 0.482 µg/mL) | – | MIC against wild-type M. tuberculosis strain (below moxifloxacin MIC) (M. tuberculosis H37Rv [1]; Table 3): 1.2
9 | CCCCCCCCCCN1CCN(c2cc3c(cc2F)c(=O)c(C(=O)O)cn3C2CC2)CC1 [Quin 9, 1-cyclopropyl-7-(4-decylpiperazin-1-yl)-6-fluoro-4-oxo-1,4-dihydroquinoline-3-carboxylic acid] | 0.5 (≈ 0.236 µg/mL) | – | 120 | –
10 | CCCCCCCCCCCCCCCCN1CCN(c2cc3c(cc2F)c(=O)c(C(=O)O)cn3C2CC2)CC1 [Quin 10, 1-cyclopropyl-6-fluoro-7-(4-hexadecylpiperazin-1-yl)-4-oxo-1,4-dihydroquinoline-3-carboxylic acid] | 57 (≈ 31.7 µg/mL) | – | 105 | –
11 | CCCCCN1CCN(c2cc3c(cc2F)c(=O)c(C(=O)O)cn3C2CC2)CC1 [Quin 15, 1-cyclopropyl-6-fluoro-4-oxo-7-(4-pentylpiperazin-1-yl)-1,4-dihydroquinoline-3-carboxylic acid] | 6 (≈ 2.41 µg/mL) | – | 76 | –
12 | CCCCCCCCN1CCN(c2cc3c(cc2F)c(=O)c(C(=O)O)cn3C2CC2)CC1 [Quin 16, 1-cyclopropyl-6-fluoro-7-(4-octylpiperazin-1-yl)-4-oxo-1,4-dihydroquinoline-3-carboxylic acid] | ≤ 0.2 | – | 135 | –
13 | CCCCCN1CCN(c2c(F)cc3c(=O)c(C(=O)O)cn(C4CC4)c3c2OC)CC1 [Quin 17, 1-cyclopropyl-6-fluoro-8-methoxy-4-oxo-7-(4-pentylpiperazin-1-yl)-1,4-dihydroquinoline-3-carboxylic acid] | 3.5 (≈ 1.51 µg/mL) | – | 60 | –
14 | CCCCCCCCCCCCCCCCN1CCN(c2c(F)cc3c(=O)c(C(=O)O)cn(C4CC4)c3c2OC)CC1 [Quin 20, 1-cyclopropyl-6-fluoro-7-(4-hexadecylpiperazin-1-yl)-8-methoxy-4-oxo-1,4-dihydroquinoline-3-carboxylic acid] | 0.2 (≈ 0.117 µg/mL) | – | 121 | –

Source: US10087165B2, “Fluoroquinolones and use thereof to treat bacterial infections” (UNIVERSITÉ PIERRE ET MARIE CURIE—PARIS 6 (UPMC), priority 2014, dated 2018)
